According to article PMC3371734 (The Journal of Experimental Medicine, 2012):

Experiments:
α3 GlyR [1] = biological target: T1, α3 GlyR (Rattus norvegicus, UniProt P24524); experiment: whole-cell patch clamp, potentiation of glycine current; type: cell-based; details: HEK 293 cells, allosteric potentiator, sustained application
T1 sequence (P24524 34-464): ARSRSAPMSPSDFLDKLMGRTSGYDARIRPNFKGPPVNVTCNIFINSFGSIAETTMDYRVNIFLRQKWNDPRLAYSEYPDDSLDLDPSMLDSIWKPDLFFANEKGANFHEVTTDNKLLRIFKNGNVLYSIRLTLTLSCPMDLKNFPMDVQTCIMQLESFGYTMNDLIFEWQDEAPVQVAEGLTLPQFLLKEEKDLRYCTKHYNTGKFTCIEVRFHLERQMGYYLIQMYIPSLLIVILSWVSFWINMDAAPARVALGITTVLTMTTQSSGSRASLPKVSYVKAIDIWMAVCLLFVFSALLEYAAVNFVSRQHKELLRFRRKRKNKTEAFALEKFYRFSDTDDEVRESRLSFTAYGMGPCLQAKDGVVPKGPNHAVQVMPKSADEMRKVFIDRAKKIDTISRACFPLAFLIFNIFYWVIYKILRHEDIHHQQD

α3 GlyR [2] = biological target: T1, α3 GlyR; experiment: whole-cell patch clamp, glycine currents; type: cell-based

SMILES	% potentiation at 1 μM (α3 GlyR [1]) [%]	EC50 (α3 GlyR [2]) [µM]
C=C(C)[C@@H]1CCC(C)=C[C@H]1c1c(O)cc(CCCCC)cc1O [CBD, cannabidiol]	491 ± 101	
NCC(=O)O [glycine]		377 ± 45
